Experimental data from patent US20100093751A1, “Indolizineacetic Acids and Their Therapeutic Use as Ligands of the CRTH2 Receptor” (priority 2006, published 2010).

Molecular target: T1, CRTH2 receptor (Homo sapiens, UniProt Q9Y5Y4)
T1 construct: expressed in transfected cells; host or cells: HEK (human embryonic kidney) cells, membranes
T1 sequence (Q9Y5Y4 1-395): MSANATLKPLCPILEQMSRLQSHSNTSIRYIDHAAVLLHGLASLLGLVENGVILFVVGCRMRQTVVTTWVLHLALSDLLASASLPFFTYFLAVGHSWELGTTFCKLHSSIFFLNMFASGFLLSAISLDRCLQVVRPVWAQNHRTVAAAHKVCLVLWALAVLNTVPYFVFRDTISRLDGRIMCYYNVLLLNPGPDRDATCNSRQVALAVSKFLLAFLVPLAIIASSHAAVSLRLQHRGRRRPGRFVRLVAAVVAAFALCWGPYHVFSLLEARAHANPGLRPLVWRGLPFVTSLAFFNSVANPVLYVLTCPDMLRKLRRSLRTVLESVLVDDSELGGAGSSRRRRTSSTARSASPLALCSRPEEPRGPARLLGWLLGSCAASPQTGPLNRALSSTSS
Test: CRTH2 radioligand binding assay ([3H]-PGD2 displacement, SPA)
Details: HEK cell membranes expressing the CRTH2 receptor, 1 nM [3H]-PGD2; Ki from IC50 by Cheng-Prusoff equation
Procedure: Compounds of the invention were tested using the following biological test method to determine their ability to displace PGD2 from the CRTH2 receptor.
Radioligand Binding Assay
The receptor binding assay is performed in a final volume of 200 μL binding buffer [10 mM BES (pH 7.4), 1 mM EDTA, 10 mM manganese chloride, 0.01% BSA] and 1 nM [^3H]-PGD2 (Amersham Biosciences UK Ltd). Ligands are added in assay buffer containing a constant amount of DMSO (1% by volume). Total binding is determined using 1% by volume of DMSO in assay buffer and non-specific binding is determined using 10 μM of unlabeled PGD2 (Sigma). Human embryonic kidney (HEK) cell membranes (3.5 μg) expressing the CRTH2 receptor are incubated with 1.5 mg wheatgerm agglutinin SPA beads and 1 nM [^3H]-PGD2 (Amersham Biosciences UK Ltd) and the mixture incubated for 3 hours at room temperature. Bound [^3H]-PGD2 is detected using a Microbeta TRILUX liquid scintillation counter (Perkin Elmer). Compound IC50 value is determined using a 6-point dose response curve in duplicate with a semi-log compound dilution series. IC50 calculations are performed using Excel and XLfit (Microsoft), and this value is used to determine a Ki value for the test compound using the Cheng-Prusoff equation.

Row | Compound | Ki [nM]
1 | Cc1c(CC(=O)O)c2ccc(F)cn2c1Sc1ccc(S(=O)(=O)N2CCOCC2)cc1F [Example 1, {6-fluoro-3-[2-fluoro-4-(morpholine-4-sulfonyl)phenylsulfanyl]-2-methylindolizin-1-yl}acetic acid] | 0.5
2 | Cc1c(CC(=O)O)c2ccc(F)cn2c1Sc1ccc(-c2cnn(C)c2)cc1 [Example 4, {6-fluoro-2-methyl-3-[4-(1-methyl-1H-pyrazol-4-yl)phenylsulfanyl]indolizin-1-yl}acetic acid] | 19
